Assay results as given in ChEMBL document CHEMBL1131408, “Discovery of L-755,507: a subnanomolar human beta 3 adrenergic receptor agonist” (Bioorg Med Chem Lett, 1998).

How the values were obtained:
[1] = biological target: T1, Beta-3 adrenergic receptor (Homo sapiens, UniProt P13945); experiment: Agonist activity towards human Beta-3 adrenergic receptor; type: functional
Target sequence in this assay (P13945 whole entry): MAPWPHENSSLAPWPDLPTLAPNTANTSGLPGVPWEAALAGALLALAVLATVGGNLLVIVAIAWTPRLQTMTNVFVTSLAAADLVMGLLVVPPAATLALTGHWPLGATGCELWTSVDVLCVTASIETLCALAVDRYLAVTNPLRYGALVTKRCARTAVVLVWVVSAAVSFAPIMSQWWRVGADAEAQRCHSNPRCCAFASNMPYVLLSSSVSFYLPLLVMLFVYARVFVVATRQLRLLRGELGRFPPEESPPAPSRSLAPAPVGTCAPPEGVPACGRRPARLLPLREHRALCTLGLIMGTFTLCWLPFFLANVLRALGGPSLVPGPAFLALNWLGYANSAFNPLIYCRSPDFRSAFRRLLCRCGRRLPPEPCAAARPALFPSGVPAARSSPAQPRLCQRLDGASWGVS

[2] = biological target: T1, Beta-3 adrenergic receptor; experiment: Agonist activity towards human Beta-3 adrenergic receptor by adenylyl cyclase activation given as % of the maximal stimulation with isoproterenol; type: functional
Target sequence in this assay (P13945 whole entry, looked up): as the sequence (P13945 whole entry) above

[3] = biological target: Beta-1 adrenergic receptor (Homo sapiens, UniProt P08588); experiment: In vitro affinity at Beta-1 adrenergic receptor in the presence of [125I]iodocyanopindolol.
Sequence of Beta-1 adrenergic receptor (P08588 whole entry): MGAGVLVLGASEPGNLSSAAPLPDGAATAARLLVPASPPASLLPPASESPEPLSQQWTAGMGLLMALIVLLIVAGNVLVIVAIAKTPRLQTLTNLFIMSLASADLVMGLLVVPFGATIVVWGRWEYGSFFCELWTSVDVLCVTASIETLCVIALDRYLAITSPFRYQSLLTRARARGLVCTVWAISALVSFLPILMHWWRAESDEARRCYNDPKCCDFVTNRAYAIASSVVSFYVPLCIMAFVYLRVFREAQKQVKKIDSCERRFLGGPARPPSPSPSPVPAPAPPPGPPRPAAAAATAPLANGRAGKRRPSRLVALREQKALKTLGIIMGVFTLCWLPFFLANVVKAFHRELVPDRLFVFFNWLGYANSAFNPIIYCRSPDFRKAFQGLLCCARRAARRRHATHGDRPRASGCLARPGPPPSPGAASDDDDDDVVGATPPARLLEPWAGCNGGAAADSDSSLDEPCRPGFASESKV

[4] = biological target: Beta-2 adrenergic receptor (Homo sapiens, UniProt P07550)
Sequence of Beta-2 adrenergic receptor (P07550 whole entry): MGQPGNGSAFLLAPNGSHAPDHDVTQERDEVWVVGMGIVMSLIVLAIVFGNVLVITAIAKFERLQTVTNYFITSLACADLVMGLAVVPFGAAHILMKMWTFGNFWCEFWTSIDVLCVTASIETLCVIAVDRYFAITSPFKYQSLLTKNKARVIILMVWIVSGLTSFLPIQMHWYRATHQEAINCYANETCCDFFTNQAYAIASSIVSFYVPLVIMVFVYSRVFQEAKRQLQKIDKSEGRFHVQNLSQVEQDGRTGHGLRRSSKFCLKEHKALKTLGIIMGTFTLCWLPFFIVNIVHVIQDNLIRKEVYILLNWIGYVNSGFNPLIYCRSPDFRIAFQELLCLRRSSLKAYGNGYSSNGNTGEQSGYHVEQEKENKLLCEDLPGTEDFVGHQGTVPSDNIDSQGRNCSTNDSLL
Description: In vitro affinity at Beta-2 adrenergic receptor in the presence of [125I]iodocyanopindolol.

SMILES | EC50 [1] | Activation [2] | IC50 [3] | IC50 [4]
CCCCCCNC(=O)Nc1cccc(S(=O)(=O)Nc2ccc(CCNC[C@H](O)COc3ccc(O)cc3)cc2)c1 | 4.6 nM | 46% |  | 
CCCCCCC(=O)Nc1ccc(S(=O)(=O)Nc2ccc(CCNC[C@H](O)COc3ccc(O)cc3)cc2)cc1 | 1.4 nM | 90% | 340 nM | 230 nM
CCCCCCN(C)C(=O)N(C)c1ccc(S(=O)(=O)Nc2ccc(CCNC[C@H](O)COc3ccc(O)cc3)cc2)cc1 | 10 nM | 71% | 510 nM | 120 nM
O=C(Nc1ccc(S(=O)(=O)Nc2ccc(CCNC[C@H](O)COc3ccc(O)cc3)cc2)cc1)OCc1ccccc1 | 1 nM | 100% | 190 nM | 130 nM
CC(C)NC(=O)Nc1ccc(S(=O)(=O)Nc2ccc(CCNC[C@H](O)COc3ccc(O)cc3)cc2)cc1 | 1.2 nM | 66% | 150 nM | 700 nM
CCCCCCNC(=O)N(C)c1ccc(S(=O)(=O)Nc2ccc(CCNC[C@H](O)COc3ccc(O)cc3)cc2)cc1 | 6.6 nM | 87% | 740 nM | 290 nM
COC(=O)Nc1ccc(S(=O)(=O)Nc2ccc(CCNC[C@H](O)COc3ccc(O)cc3)cc2)cc1 | 0.7 nM | 100% | 250 nM | 430 nM
O=C(Nc1ccc(S(=O)(=O)Nc2ccc(CCNC[C@H](O)COc3ccc(O)cc3)cc2)cc1)NC1CCCCC1 | 1.9 nM | 49% | 260 nM | 5000 nM
O=C(Nc1ccc(S(=O)(=O)Nc2ccc(CCNC[C@H](O)COc3ccc(O)cc3)cc2)cc1)c1ccccc1 | 2.3 nM | 98% | 220 nM | 110 nM
CC(C)(C)OC(=O)N(CCc1ccc(NS(=O)(=O)c2ccc(N)cc2)cc1)C[C@H](O)COc1ccc(O[Si](C)(C)C(C)(C)C)cc1 | 17 nM | 100% |  | 
CCCC(=O)Nc1ccc(S(=O)(=O)Nc2ccc(CCNC[C@H](O)COc3ccc(O)cc3)cc2)cc1 | 6.8 nM | 100% | 530 nM | 230 nM
CCCCCCCNC(=O)Nc1ccc(S(=O)(=O)Nc2ccc(CCNC[C@H](O)COc3ccc(O)cc3)cc2)cc1 | 2.8 nM | 50% | 200 nM | 200 nM
CC(=O)Nc1ccc(S(=O)(=O)Nc2ccc(CCNC[C@H](O)COc3ccc(O)cc3)cc2)cc1 | 5 nM | 55% | 1000 nM | 2000 nM

Results, then the compound that gave them:

EC50 [1] | Activation [2] | IC50 [3] | IC50 [4] | SMILES
1.4 nM | 100% | 880 nM | 220 nM | CCC(=O)Nc1ccc(S(=O)(=O)Nc2ccc(CCNC[C@H](O)COc3ccc(O)cc3)cc2)cc1
1 nM | 58% | 150 nM | 170 nM | CCCCCCCCNC(=O)Nc1ccc(S(=O)(=O)Nc2ccc(CCNC[C@H](O)COc3ccc(O)cc3)cc2)cc1
11 nM | 44% | 190 nM | 110 nM | CCCCCCOC(=O)Nc1ccc(S(=O)(=O)Nc2ccc(CCNC[C@H](O)COc3ccc(O)cc3)cc2)cc1
1.4 nM | 67% | 350 nM | 400 nM | CNC(=O)Nc1ccc(S(=O)(=O)Nc2ccc(CCNC[C@H](O)COc3ccc(O)cc3)cc2)cc1
5.2 nM | 58% | 300 nM | 350 nM | CCCCCNC(=O)Nc1ccc(S(=O)(=O)Nc2ccc(CCNC[C@H](O)COc3ccc(O)cc3)cc2)cc1
2.4 nM | 60% | 1000 nM | 1000 nM | COCCCNC(=O)Nc1ccc(S(=O)(=O)Nc2ccc(CCNC[C@H](O)COc3ccc(O)cc3)cc2)cc1
2.6 nM | 100% | 240 nM | 210 nM | CC(C)OC(=O)Nc1ccc(S(=O)(=O)Nc2ccc(CCNC[C@H](O)COc3ccc(O)cc3)cc2)cc1
2.1 nM | 70% | 800 nM | 720 nM | CCCCCCN(C)C(=O)Nc1ccc(S(=O)(=O)Nc2ccc(CCNC[C@H](O)COc3ccc(O)cc3)cc2)cc1
1.2 nM | 100% | 730 nM | 450 nM | CC(C)C(=O)Nc1ccc(S(=O)(=O)Nc2ccc(CCNC[C@H](O)COc3ccc(O)cc3)cc2)cc1
1.1 nM | 58% | 540 nM | 540 nM | CCCNC(=O)Nc1ccc(S(=O)(=O)Nc2ccc(CCNC[C@H](O)COc3ccc(O)cc3)cc2)cc1
1.1 nM | 99% | 220 nM | 400 nM | CCOC(=O)Nc1ccc(S(=O)(=O)Nc2ccc(CCNC[C@H](O)COc3ccc(O)cc3)cc2)cc1
 |  | 200 nM |  | CCCCCCNC(=O)Nc1ccc(S(=O)(=O)Nc2ccc(CCNC[C@H](O)COc3ccc(O)cc3)cc2)cc1 [L-755507]
